According to article PMC7144022, “Quinolinecarboxamides Inhibit the Replication of the Bovine Viral Diarrhea Virus by Targeting a Hot Spot for the Inhibition of Pestivirus Replication in the RNA-Dependent RNA Polymerase” (Molecules, 2020):

Key:
MDBK cells = test: Cytotoxicity assay, proliferation of exponentially growing MDBK cells (MTS/PMS); format: cell-based, bovine; settings: 5 days
Method: (§1) Assays were carried out, as described previously.

BVDV NADL virus = test: CPE-based antiviral assay, BVDV NADL in MDBK cells (MTS/PMS); settings: for S.I.: selectivity index, CC50 vs EC50
[1] = target: T1, BVDV (NADL) RNA-dependent RNA polymerase (RdRp) (Bovine viral diarrhea virus, UniProt P19711); settings: reference compounds; cited from earlier work
T1 construct: BVDV (NADL) RNA-dependent RNA polymerase (RdRp) was expressed and purified; made in house

[2] = target: T1, BVDV (NADL) RNA-dependent RNA polymerase (RdRp); test: RNA-dependent RNA polymerase assay, poly(C) template; format: biochemical; settings: purified RdRp, read-out: 50% inhibitory concentration for the BVDV polymerase activity
Method: BVDV (NADL) RNA-dependent RNA polymerase (RdRp) was expressed and purified, as described before. […] In brief, the purified BVDV polymerase (100 nM) was mixed with 100 µM GTP (containing 8.3 µM of [^3H]GTP, Perkin Elmer) and increasing concentration of the inhibitor (0.2 µM, 0.7 µM, 2 µM, 6 µM, 19 µM, 56 µM, 165 µM or 500 µM) in 50 mM Hepes pH 8.0, 10 mM KCl, 10 mM DTT, 1 mM MgCl2, 2mM MnCl2, and 0.5% igepal (Sigma). The enzyme mix and inhibitors were pre-incubated, in order to favor enzyme-inhibitor interactions before RNA binding. Reactions were started by the addition of 100 nM of poly(C) (about 500 nt in size) template. Reactions were incubated at 30 °C and stopped by addition of 50 mM EDTA. Samples were transferred onto DE-81 filters, washed with 0.3 M ammonium formate solution, and dried. Radioactivity bound to the filter was determined by liquid scintillation counting.

[3] = Cytotoxicity assay, proliferation of exponentially growing MDBK cells (MTS/PMS); format: cell-based, bovine; settings: bovine
Method: as §1

[4] = sheet CSFCII#, potency relative to TO502-2403 (EC50 0.2 µM)
[5] = protection against BVDV (NADL, wild type)-induced CPE in MDBK cells, 3 days
[6] = Bovine viral diarrhea virus isolates and strains, MDBK, 72 h
[7] = sheet CSFCI#, potency relative to TO505-6180 (EC50 0.07 µM)

T1 sequence (P19711 3270-3988): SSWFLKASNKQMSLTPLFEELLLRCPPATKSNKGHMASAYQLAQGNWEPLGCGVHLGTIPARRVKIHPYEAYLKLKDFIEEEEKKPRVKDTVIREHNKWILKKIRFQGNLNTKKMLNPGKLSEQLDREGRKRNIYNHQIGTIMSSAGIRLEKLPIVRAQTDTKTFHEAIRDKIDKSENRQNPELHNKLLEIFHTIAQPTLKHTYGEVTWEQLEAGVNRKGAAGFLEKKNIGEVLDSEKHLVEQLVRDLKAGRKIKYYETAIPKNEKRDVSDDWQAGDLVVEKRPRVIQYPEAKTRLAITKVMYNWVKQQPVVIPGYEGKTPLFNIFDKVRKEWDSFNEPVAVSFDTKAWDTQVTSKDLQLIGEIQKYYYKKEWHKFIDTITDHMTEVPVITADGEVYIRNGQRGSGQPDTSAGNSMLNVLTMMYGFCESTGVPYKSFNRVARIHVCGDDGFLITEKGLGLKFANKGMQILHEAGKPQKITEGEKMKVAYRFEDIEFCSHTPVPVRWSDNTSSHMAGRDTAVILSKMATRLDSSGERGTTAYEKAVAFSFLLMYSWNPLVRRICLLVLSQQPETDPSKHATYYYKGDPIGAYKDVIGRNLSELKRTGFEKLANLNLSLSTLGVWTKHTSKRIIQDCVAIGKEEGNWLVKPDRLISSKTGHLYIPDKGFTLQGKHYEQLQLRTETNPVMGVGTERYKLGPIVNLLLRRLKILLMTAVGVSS

## Cc1cc(nn1)NC(=O)c3cc(nc2ccccc23)c4ccccc4 [CSFC-20]
MDBK cells
  CC50: > 100 µM
BVDV NADL virus
  S.I.: 1
BVDV NADL virus; [4]
  fold increase: 0.002

## O=C(Nc2cc(c1ccccc1)nn2)c4cc(nc3ccc(F)cc34)c5cccs5 [CSFC-124]
MDBK cells
  CC50: > 100 µM
BVDV NADL virus; [5]
  EC50: 22 µM
BVDV NADL virus
  S.I.: 5
BVDV NADL virus; [4]
  fold increase: 0.00909

## Brc1ccc(Cn2ccc3nc(-c4ccccc4)nc-3c2)cc1 [BPIP, 5-[(4-bromophenyl)methyl]-2-phenyl-5H-imidazo[4,5-c]pyridine]
[1]
  inhibitory effect on the highly purified BVDV RdRp: none of these compounds had any inhibitory effect

## Cc1cccc2sc(nc12)NC(=O)c4cc(nc3ccccc34)c5cccn5 [CSFC-59]
MDBK cells
  CC50: > 100 µM
BVDV NADL virus; [5]
  EC50: 54 µM
BVDV NADL virus
  S.I.: 2
BVDV NADL virus; [4]
  fold increase: 0.0037

## Nc1nc2c(cnn2CCCc2ccc3c(c2)OCO3)c2nc(-c3ccco3)nn12 [LZ37, 7-[3-(1,3-benzodioxol-5-yl)propyl]-2-(2-furyl)-7H-pyrazolo[4,3-e][1,2, 4]triazolo[1,5-c]pyrimidin-5-amine]
[1]
  inhibitory effect on the highly purified BVDV RdRp: none of these compounds had any inhibitory effect

## CCOC(=O)c1cc2ccn3c(c-2n1)N=C(C)C3 [AG110, ethyl 2-methylimidazo[1,2-a]pyrrolo[2,3-c]pyridin-8-carboxylate]
[1]
  inhibitory effect on the highly purified BVDV RdRp: none of these compounds had any inhibitory effect

## Nc1nc2c(ncn2[C@@H]2O[C@H](COP(=O)(O)OP(=O)(O)OP(=O)(O)O)C[C@H]2O)c(=O)[nH]1 [3′-dGTP, 3′-deoxyguanosine-5’-triphosphate, reference compound]
[2]
  IC50: < 1 µM

## O=C(Nc1ccn(-c2ccccc2)n1)c1cc(-c2ccc(F)cc2)nc2ccccc12 [CSFC-70, Fc1ccc(cc1)c3nc2ccccc2c(c3)C(=O)Nc4ccn(n4)c5ccccc5]
[3]
  CC50 at 5 days: > 100 µM
BVDV NADL virus; [6]
  EC50: 0.1 µM
BVDV NADL virus
  S.I.: 1000
BVDV NADL virus; [4]
  fold increase: 2.00

## O=C(Nc1cc(-c2ccc(Br)cc2)on1)c1cc(-c2ccccc2)nc2ccccc12 [CSFC-43, O=C(Nc1cc(on1)c2ccc(Br)cc2)c4cc(nc3ccccc34)c5ccccc5]
[3]
  CC50 at 5 days: > 100 µM
BVDV NADL virus; [6]
  EC50: 4 µM
BVDV NADL virus
  S.I.: 26
BVDV NADL virus; [4]
  fold increase: 0.05

## Cc1ccc2nc(NC(=O)c3ccccn3)sc2c1 [CSFC-25, Cc1ccc2nc(NC(=O)c3ccccn3)sc2c1]
[3]
  CC50 at 5 days: > 100 µM
BVDV NADL virus; [6]
  EC50: > 100 µM
BVDV NADL virus
  S.I.: 1
BVDV NADL virus; [7]
  fold increase: 0.0007

## O=C(Nc1ccn(-c2ccccc2)n1)c1cc(-c2cccnc2)nc2ccccc12 [CSFC-99, O=C(Nc1ccn(n1)c1ccccc1)c1cc(nc2ccccc21)c1cccnc1]
[3]
  CC50 at 5 days: 72 µM
BVDV NADL virus; [6]
  EC50: 53.6 µM
BVDV NADL virus
  S.I.: 1
BVDV NADL virus; [4]
  fold increase: 0.00373

## Cc1cccc2sc(NC(=O)c3cc(-c4cccn4C)nc4ccccc34)nc12 [CSFC-88, Cn1cccc1c3nc2ccccc2c(c3)C(=O)Nc4nc5c(C)cccc5s4]
[3]
  CC50 at 5 days: > 100 µM
BVDV NADL virus; [6]
  EC50: 0.2 µM
BVDV NADL virus
  S.I.: 500
BVDV NADL virus; [4]
  fold increase: 1.00

## Cc1cccc2sc(NC(=O)c3cc(-c4cccs4)nc4ccccc34)nc12 [CSFC-46, Cc1cccc2sc(nc12)NC(=O)c4cc(nc3ccccc34)c5cccs5]
[3]
  CC50 at 5 days: > 100 µM
BVDV NADL virus; [6]
  EC50: 0.2 µM
BVDV NADL virus
  S.I.: 500
BVDV NADL virus; [4]
  fold increase: 1.00

## O=C(Nc1ccn(-c2ccccc2)n1)c1cc(-c2ccccc2F)nc2c(F)cccc12 [CSFC-102, Fc1ccccc1c3nc2c(cccc2F)c(c3)C(=O)Nc4ccn(n4)c5ccccc5]
[3]
  CC50 at 5 days: > 100 µM
BVDV NADL virus; [6]
  EC50: 0.3 µM
BVDV NADL virus
  S.I.: 333
BVDV NADL virus; [4]
  fold increase: 0.67

## O=C(Nc1nc2ccccc2s1)c1cc(-c2ccccc2)nc2ccccc12 [CSFC-13, O=C(Nc1nc2ccccc2s1)c1cc(nc2ccccc21)c1ccccc1]
[3]
  CC50 at 5 days: > 100 µM
BVDV NADL virus; [6]
  EC50: 1.2 µM
BVDV NADL virus; [7]
  fold increase: 0.06

## O=C(Nc1nc2c(C(F)(F)F)cccc2s1)c1cc(-c2ccccc2)nc2ccccc12 [CSFC-148, FC(F)(F)c1cccc2sc(nc12)NC(=O)c1cc(nc2ccccc21)c1ccccc1]
[3]
  CC50 at 5 days: 20 ± 1.6 µM
BVDV NADL virus; [6]
  EC50: 0.3 µM
BVDV NADL virus
  S.I.: 67
BVDV NADL virus; [7]
  fold increase: 0.23

## COc1ccc(-c2cc(C(=O)Nc3nc4c(C)cccc4s3)c3ccccc3n2)cc1F [CSFC-119, COc1ccc(cc1F)c3nc2ccccc2c(c3)C(=O)Nc4nc5c(C)cccc5s4]
[3]
  CC50 at 5 days: > 100 µM
BVDV NADL virus; [6]
  EC50: 2.5 µM
BVDV NADL virus
  S.I.: 40
BVDV NADL virus; [4]
  fold increase: 0.08

## O=C(Nc1cccnc1)c1cc(-c2ccccc2)nc2ccccc12 [CSFC-7, O=C(Nc1cccnc1)c1cc(nc2ccccc21)c1ccccc1]
[3]
  CC50 at 5 days: > 100 µM
BVDV NADL virus; [6]
  EC50: > 100 µM
BVDV NADL virus
  S.I.: 1
BVDV NADL virus; [7]
  fold increase: 0.0007

## Cc1cccc(-n2ccc(NC(=O)c3cc(-c4ccccc4)nc4ccccc34)n2)c1 [CSFC-133, Cc1cccc(c1)n2ccc(n2)NC(=O)c4cc(nc3ccccc34)c5ccccc5]
[3]
  CC50 at 5 days: > 100 µM
BVDV NADL virus; [6]
  EC50: 0.02 µM
BVDV NADL virus; [4]
  fold increase: 10.00

## CCOc1ccc2nc(NC(=O)c3cc(-c4ccco4)nc4ccccc34)sc2c1 [CSFC-57, CCOc1ccc2nc(sc2c1)NC(=O)c4cc(nc3ccccc34)c5ccco5]
[3]
  CC50 at 5 days: > 100 µM
BVDV NADL virus; [6]
  EC50: 0.5 µM
BVDV NADL virus
  S.I.: 200
BVDV NADL virus; [4]
  fold increase: 0.40

## Cc1ccc2nc(NC(=O)c3nccn3C)sc2c1 [CSFC-33, Cn1ccnc1C(=O)Nc1nc2ccc(C)cc2s1]
[3]
  CC50 at 5 days: > 100 µM
BVDV NADL virus; [6]
  EC50: 46 µM
BVDV NADL virus
  S.I.: 2
BVDV NADL virus; [7]
  fold increase: 0.00152

## O=C(Nc1nc2ccccc2[nH]1)c1cc(-c2ccccc2)nc2ccccc12 [CSFC-3, O=C(Nc1nc2ccccc2[NH]1)c1cc(nc2ccccc21)c1ccccc1]
[3]
  CC50 at 5 days: > 100 µM
BVDV NADL virus; [6]
  EC50: > 100 µM
BVDV NADL virus
  S.I.: 1
BVDV NADL virus; [7]
  fold increase: 0.0007

## O=C(Nc1ccn(-c2ccccc2)n1)c1cc(-c2cccs2)nc2ccc(F)cc12 [CSFC-93, O=C(Nc1ccn(n1)c2ccccc2)c4cc(nc3ccc(F)cc34)c5cccs5]
[3]
  CC50 at 5 days: > 100 µM
BVDV NADL virus; [6]
  EC50: 0.06 µM
BVDV NADL virus
  S.I.: 1667
BVDV NADL virus; [4]
  fold increase: 3.33

## Cc1cccc(-n2ccc(NC(=O)c3cc(-c4cccnc4)nc4ccccc34)n2)c1 [CSFC-130, Cc1cccc(c1)n2ccc(n2)NC(=O)c4cc(nc3ccccc34)c5cccnc5]
[3]
  CC50 at 5 days: 5 µM
BVDV NADL virus; [6]
  EC50: 0.02 µM
BVDV NADL virus; [4]
  fold increase: 10.00

## O=C(Nc1ccccc1)c1cc(-c2ccccc2)nc2ccccc12 [CSFC-134, O=C(Nc1ccccc1)c1cc(nc2ccccc12)c1ccccc1]
[3]
  CC50 at 5 days: > 100 µM
BVDV NADL virus; [6]
  EC50: > 100 µM
BVDV NADL virus
  S.I.: 1
BVDV NADL virus; [7]
  fold increase: 0.0007

## O=C(Nc1nc(-c2ccccc2)cs1)c1cc(-c2ccccc2)nc2ccccc12 [CSFC-60, O=C(Nc1nc(cs1)c2ccccc2)c4cc(nc3ccccc34)c5ccccc5]
[3]
  CC50 at 5 days: > 100 µM
BVDV NADL virus; [6]
  EC50: 0.7 µM
BVDV NADL virus
  S.I.: 143
BVDV NADL virus; [4]
  fold increase: 0.29

## O=C(Nc1ccccn1)c1cc(-c2ccccc2)nc2ccccc12 [CSFC-6, O=C(Nc1ccccn1)c1cc(nc2ccccc21)c1ccccc1]
[3]
  CC50 at 5 days: > 100 µM
BVDV NADL virus; [6]
  EC50: > 100 µM
BVDV NADL virus
  S.I.: 1
BVDV NADL virus; [7]
  fold increase: 0.0007

## O=C(Nc1ccn(-c2ccccc2)n1)c1cc(-c2ccc3ccccc3c2)nc2ccccc12 [CSFC-146, O=C(c2cc(nc1ccccc12)c3cc4ccccc4cc3)Nc5ccn(n5)c6ccccc6]
[3]
  CC50 at 5 days: > 100 µM
BVDV NADL virus; [6]
  EC50: 0.03 µM
BVDV NADL virus
  S.I.: 3333
BVDV NADL virus; [4]
  fold increase: 6.67

## Cc1ccc2nc(NC(=O)c3ccccc3)sc2c1 [CSFC-29, Cc1ccc2nc(NC(=O)c3ccccc3)sc2c1]
[3]
  CC50 at 5 days: > 100 µM
BVDV NADL virus; [6]
  EC50: > 100 µM
BVDV NADL virus
  S.I.: 1
BVDV NADL virus; [7]
  fold increase: 0.0007

## COc1ccc2nc(NC(=O)c3cc(-c4ccco4)nc4ccccc34)sc2c1 [CSFC-38, COc1ccc2nc(NC(=O)c3cc(nc4ccccc43)c3ccco3)sc2c1]
[3]
  CC50 at 5 days: > 100 µM
BVDV NADL virus; [6]
  EC50: 0.09 µM
BVDV NADL virus
  S.I.: 1111
BVDV NADL virus; [7]
  fold increase: 0.78
